Measured values reported in PubChem BioAssay (NCI).
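Results reflect a 48-hour exposure of cells in 96-well plates to compound at five concentrations. TGI marks complete inhibition of growth.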

Legend:
Experiment in all cases: inhibition of tumour cell growth, NCI panel, 48 h
MDA-MB-435 = system: MDA-MB-435
HCT-116 colon = system: HCT-116 colon
SW-620 colon = system: SW-620 colon
U251 CNS = system: U251 CNS
PC-3 prostate = system: PC-3 prostate
NCI/ADR-RES ovarian = system: NCI/ADR-RES ovarian
SNB-75 CNS = system: SNB-75 CNS
DU-145 prostate = system: DU-145 prostate
OVCAR-5 ovarian = system: OVCAR-5 ovarian
SF-539 CNS = system: SF-539 CNS
NCI-H23 lung = system: NCI-H23 lung
M14 melanoma = system: M14 melanoma
NCI-H522 lung = system: NCI-H522 lung
NCI-H460 lung = system: NCI-H460 lung
SN12C renal = system: SN12C renal
HOP-62 NSCLC = system: HOP-62 NSCLC
MDA-N = system: MDA-N
MOLT-4 leukemia = system: MOLT-4 leukemia
MCF7 breast = system: MCF7 breast
SF-295 CNS = system: SF-295 CNS
SK-MEL-5 melanoma = system: SK-MEL-5 melanoma
HOP-92 NSCLC = system: HOP-92 NSCLC
OVCAR-3 ovarian = system: OVCAR-3 ovarian
EKVX NSCLC = system: EKVX NSCLC
MDA-MB-231 breast = system: MDA-MB-231 breast
MALME-3M melanoma = system: MALME-3M melanoma
T-47D breast = system: T-47D breast
NCI-H226 lung = system: NCI-H226 lung
UACC-62 melanoma = system: UACC-62 melanoma
UACC-257 melanoma = system: UACC-257 melanoma
HS 578T breast = system: HS 578T breast
UO-31 renal = system: UO-31 renal
HT29 colon = system: HT29 colon
LOX IMVI melanoma = system: LOX IMVI melanoma
HCC-2998 colon = system: HCC-2998 colon
SK-MEL-28 melanoma = system: SK-MEL-28 melanoma
OVCAR-4 ovarian = system: OVCAR-4 ovarian
SK-MEL-2 melanoma = system: SK-MEL-2 melanoma
786-0 renal = system: 786-0 renal
KM12 colon = system: KM12 colon
SF-268 CNS = system: SF-268 CNS
TK-10 renal = system: TK-10 renal
ACHN renal = system: ACHN renal
BT-549 breast = system: BT-549 breast
SK-OV-3 ovarian = system: SK-OV-3 ovarian
IGROV1 ovarian = system: IGROV1 ovarian
SNB-19 CNS = system: SNB-19 CNS
CAKI-1 renal = system: CAKI-1 renal
RPMI-8226 leukemia = system: RPMI-8226 leukemia
CCRF-CEM leukemia = system: CCRF-CEM leukemia
COLO 205 colon = system: COLO 205 colon
A549 NSCLC = system: A549 NSCLC
K-562 leukemia = system: K-562 leukemia
HCT-15 colon = system: HCT-15 colon
OVCAR-8 ovarian = system: OVCAR-8 ovarian
HL-60(TB) leukemia = system: HL-60(TB) leukemia
RXF 393 renal = system: RXF 393 renal
A498 renal = system: A498 renal

In the case of `COc1ccc2c(c1)c1c(n2CCN(C)C)-c2ccccc2CC1`, the TGI (MDA-MB-435) is reported as 36.5 µM, the TGI (HCT-116 colon) is reported as 28.7 µM and the TGI (SW-620 colon) is reported as 34.2 µM. The TGI (U251 CNS) was 27.2 µM, the TGI (PC-3 prostate) was 25.2 µM and the TGI (NCI/ADR-RES ovarian) was 31.5 µM. It also gave a TGI (SNB-75 CNS) of 26.6 µM, a TGI (DU-145 prostate) of 29.4 µM and a TGI (OVCAR-5 ovarian) of 32.2 µM. It also gave a TGI (SF-539 CNS) of 27 µM, a TGI (NCI-H23 lung) of 31.9 µM and a TGI (M14 melanoma) of 29.3 µM. For the same compound, the TGI (NCI-H522 lung) was 32.9 µM, the TGI (NCI-H460 lung) was 30.8 µM and the TGI (SN12C renal) was 28.1 µM. The TGI (HOP-62 NSCLC) was 30.5 µM, the TGI (MDA-N) was 30.5 µM and the TGI (MOLT-4 leukemia) was 35.8 µM. The TGI (MCF7 breast) was 35.1 µM, the TGI (SF-295 CNS) was 30.6 µM and the TGI (SK-MEL-5 melanoma) was 32.7 µM. It also gave a TGI (HOP-92 NSCLC) of 31 µM, a TGI (OVCAR-3 ovarian) of 30.9 µM and a TGI (EKVX NSCLC) of 24.4 µM. For the same compound, the TGI (MDA-MB-231 breast) was 27.2 µM, the TGI (MALME-3M melanoma) was 35.5 µM and the TGI (T-47D breast) was 31.5 µM. For the same compound, the TGI (NCI-H226 lung) was 24.6 µM, the TGI (UACC-62 melanoma) was 28 µM and the TGI (UACC-257 melanoma) was 30.3 µM. For the same compound, the TGI (HS 578T breast) was 34.2 µM, the TGI (UO-31 renal) was 26.4 µM and the TGI (HT29 colon) was 20.3 µM. It also gave a TGI (LOX IMVI melanoma) of 33.5 µM, a TGI (HCC-2998 colon) of 32.2 µM and a TGI (SK-MEL-28 melanoma) of 29.1 µM. For the same compound, the TGI (OVCAR-4 ovarian) was 31.4 µM, the TGI (SK-MEL-2 melanoma) was 30.3 µM and the TGI (786-0 renal) was 30.4 µM. The TGI (KM12 colon) was 28 µM, the TGI (SF-268 CNS) was 32.7 µM and the TGI (TK-10 renal) was 29.8 µM. The TGI (ACHN renal) was 30 µM, the TGI (BT-549 breast) was 30.7 µM and the TGI (SK-OV-3 ovarian) was 34.4 µM. The TGI (IGROV1 ovarian) was 27 µM, the TGI (SNB-19 CNS) was 35.5 µM and the TGI (CAKI-1 renal) was 27.6 µM. The TGI (RPMI-8226 leukemia) was 45 µM, the TGI (CCRF-CEM leukemia) was 38.6 µM and the TGI (COLO 205 colon) was 27.2 µM. For the same compound, the TGI (A549 NSCLC) was 29.5 µM, the TGI (K-562 leukemia) was 29.8 µM and the TGI (HCT-15 colon) was 26.8 µM. For the same compound, the TGI (OVCAR-8 ovarian) was 31.1 µM.
In the case of `Cc1ccc2nc(N/N=C/c3sccc3C)cc(C)c2c1`, the TGI (MDA-MB-435) is reported as greater than 100 µM, the TGI (HCT-116 colon) is reported as greater than 100 µM and the TGI (SW-620 colon) is reported as greater than 100 µM. For the same compound, the TGI (U251 CNS) was greater than 100 µM, the TGI (PC-3 prostate) was greater than 100 µM and the TGI (NCI/ADR-RES ovarian) was greater than 100 µM. For the same compound, the TGI (SNB-75 CNS) was greater than 100 µM, the TGI (DU-145 prostate) was greater than 100 µM and the TGI (OVCAR-5 ovarian) was greater than 100 µM. It also gave a TGI (NCI-H23 lung) greater than 100 µM, a TGI (M14 melanoma) greater than 100 µM and a TGI (SN12C renal) greater than 100 µM. It also gave a TGI (HOP-62 NSCLC) greater than 100 µM, a TGI (MDA-N) greater than 100 µM and a TGI (MOLT-4 leukemia) greater than 100 µM. The TGI (MCF7 breast) was greater than 100 µM, the TGI (SK-MEL-5 melanoma) was greater than 100 µM and the TGI (HOP-92 NSCLC) was greater than 100 µM. It also gave a TGI (OVCAR-3 ovarian) greater than 100 µM, a TGI (EKVX NSCLC) greater than 100 µM and a TGI (MDA-MB-231 breast) of 62.2 µM. The TGI (T-47D breast) was greater than 100 µM, the TGI (NCI-H226 lung) was greater than 100 µM and the TGI (UACC-62 melanoma) was greater than 100 µM. The TGI (HL-60(TB) leukemia) was greater than 100 µM, the TGI (UACC-257 melanoma) was greater than 100 µM and the TGI (HS 578T breast) was greater than 100 µM. It also gave a TGI (UO-31 renal) greater than 100 µM, a TGI (HT29 colon) greater than 100 µM and a TGI (LOX IMVI melanoma) greater than 100 µM. It also gave a TGI (HCC-2998 colon) greater than 100 µM, a TGI (SK-MEL-28 melanoma) greater than 100 µM and a TGI (OVCAR-4 ovarian) greater than 100 µM. It also gave a TGI (SK-MEL-2 melanoma) greater than 100 µM, a TGI (786-0 renal) greater than 100 µM and a TGI (KM12 colon) greater than 100 µM. The TGI (SF-268 CNS) was greater than 100 µM, the TGI (TK-10 renal) was greater than 100 µM and the TGI (ACHN renal) was greater than 100 µM. For the same compound, the TGI (RXF 393 renal) was greater than 100 µM, the TGI (BT-549 breast) was greater than 100 µM and the TGI (SK-OV-3 ovarian) was greater than 100 µM. The TGI (IGROV1 ovarian) was greater than 100 µM, the TGI (SNB-19 CNS) was greater than 100 µM and the TGI (CAKI-1 renal) was greater than 100 µM. The TGI (CCRF-CEM leukemia) was greater than 100 µM, the TGI (COLO 205 colon) was greater than 100 µM and the TGI (A549 NSCLC) was greater than 100 µM. The TGI (K-562 leukemia) was greater than 100 µM, the TGI (HCT-15 colon) was greater than 100 µM and the TGI (OVCAR-8 ovarian) was greater than 100 µM. For the same compound, the TGI (A498 renal) was greater than 100 µM.
